# In patent publication US6531645B1, “RAS/P21 transgenic mouse” (University of South Florida, priority 2000, dated 2003):
# Tested on: mammary tumors of MMTV/v-Ha-ras/p21WAF1 (−/−) transgenic mice
# Experiment: Antitumor efficacy of FTI-2148 in MMTV/v-Ha-ras/p21WAF1 (−/−) transgenic mice
# Format: in vivo, mouse
# Settings: 50 mg/Kg/day by subcutaneous osmotic mini-pump
# Description: The MMTV/v-Ha-Ras/p21waf(−/−) transgenic mice are generated as described herein. When the three mammary tumors reach 4500 mm^3, 2000 mm^3 and 900 mm^3 (see FIG. 1), the mice are implanted subcutaneously with an osmotic mini-pump that delivers 50 mg/Kg/day of the farnesyltransferase inhibitor FTI-2148 that was designed to block oncogenic H-Ras malignant transformation. […] Thus, within 6 days of drug treatment one skilled in the art can determine whether a drug has antitumor activity.
# Tumor Development Monitoring and Sample Collection. The female offspring are monitored weekly for tumors by observation and palpation. Tumor diameters are measured in three dimensions using calipers, and tumor volume is calculated as length x width x height. Samples of tumor and normal tissue are collected in 10% neutral buffered formalin for histopathologic analysis. All surgical and experimental procedures performed on the mice are in accordance the NIH guidelines outlined in the “Guide for Care and Use of Laboratory Animals” (NIH publication 85-23). Animals are autopsied immediately after sacrifice, and external as well as internal organs are grossly examined. Representative tissue samples are obtained from salivary glands, mammary glands, lungs, liver, kidneys, spleen, and Harderian (lacrimal) glands. For general microscopy, tissues are embedded in paraffin, and 3 μm-thick sections are cut and stained with hematoxylin and eosin. Tissues are also processed using either an avidin-biotin complex method or a labeled streptavidin-biotin method after antigen retrieval. […] Negative and positive controls include the omission of the primary antibody and normal or tumor tissues with known high marker expression. p21^WAF1/CIP1 expression is analyzed by immunohistochemistry with an anti-p21 antibody (sc-397-G, Santa Cruz Biotechnology). […]
smiles,measurement,setting,value
CSCC[C@H](NC(=O)c1ccc(CNCc2cnc[nH]2)cc1-c1ccccc1C)C(=O)O [FTI-2148],fate by day 15 of one of the three mammary tumors,day 15,one tumor disappears
same,tumor volume by day 15 of the two tumors that started out at 4500 mm^3 and 2000 mm^3,day 15,less than 500 mm^3
same,time of treatment within which the tumors start to regress,"three mammary tumors of 4500, 2000 and 900 mm^3 at start",≤ 6 days
